Data as given in patent US20180217163A1, “TREATMENT OF NEURODEGENERATIVE CONDITIONS USING PKC ACTIVATORS AFTER DETERMINING THE PRESENCE OF THE APOE4 ALLELE” (priority 2015, published 2018).
Read-outs that look alike come from different tables or passages of the source.

Key:
PKC [1] = conditions: cited from earlier work
[2] = tested on: squamous cell carcinoma and melanoma; conditions: used topically; cited from earlier work
[3] = cited from earlier work
PKCε [4] = biological target: T1, PKCε (Mus musculus, UniProt P16054); assay: PKCε activation in brain of mice (FIG. 11); type: in vivo; conditions: single intravenous injection
T1 construct: from tissue; host or cells: mouse brain
T1 sequence (P16054 1-737): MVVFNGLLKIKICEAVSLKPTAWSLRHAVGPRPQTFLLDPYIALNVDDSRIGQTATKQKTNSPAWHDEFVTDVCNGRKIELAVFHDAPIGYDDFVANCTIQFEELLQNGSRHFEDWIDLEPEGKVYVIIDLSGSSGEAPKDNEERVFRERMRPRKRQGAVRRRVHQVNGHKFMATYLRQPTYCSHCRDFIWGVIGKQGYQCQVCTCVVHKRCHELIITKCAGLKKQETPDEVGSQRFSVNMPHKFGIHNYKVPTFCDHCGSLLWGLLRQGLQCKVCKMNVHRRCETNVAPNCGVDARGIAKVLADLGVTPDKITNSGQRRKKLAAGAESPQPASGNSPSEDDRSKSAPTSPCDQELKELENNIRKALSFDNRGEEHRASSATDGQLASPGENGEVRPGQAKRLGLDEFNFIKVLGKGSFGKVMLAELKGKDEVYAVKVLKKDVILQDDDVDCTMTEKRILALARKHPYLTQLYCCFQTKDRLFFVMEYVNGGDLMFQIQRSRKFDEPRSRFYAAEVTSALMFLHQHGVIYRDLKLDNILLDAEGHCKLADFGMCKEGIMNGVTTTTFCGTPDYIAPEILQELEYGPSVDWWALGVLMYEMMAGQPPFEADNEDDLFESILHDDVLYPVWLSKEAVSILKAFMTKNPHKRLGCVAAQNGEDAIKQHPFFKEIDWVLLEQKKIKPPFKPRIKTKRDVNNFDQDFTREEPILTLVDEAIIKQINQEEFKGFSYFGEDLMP

PKCε [5] = biological target: T2, PKCε (Homo sapiens, UniProt Q02156); assay: Phase IIa clinical trial: PKCε levels after bryostatin; type: in vivo
T2 construct: from tissue; host or cells: blood of trial subjects
T2 sequence (Q02156 1-737): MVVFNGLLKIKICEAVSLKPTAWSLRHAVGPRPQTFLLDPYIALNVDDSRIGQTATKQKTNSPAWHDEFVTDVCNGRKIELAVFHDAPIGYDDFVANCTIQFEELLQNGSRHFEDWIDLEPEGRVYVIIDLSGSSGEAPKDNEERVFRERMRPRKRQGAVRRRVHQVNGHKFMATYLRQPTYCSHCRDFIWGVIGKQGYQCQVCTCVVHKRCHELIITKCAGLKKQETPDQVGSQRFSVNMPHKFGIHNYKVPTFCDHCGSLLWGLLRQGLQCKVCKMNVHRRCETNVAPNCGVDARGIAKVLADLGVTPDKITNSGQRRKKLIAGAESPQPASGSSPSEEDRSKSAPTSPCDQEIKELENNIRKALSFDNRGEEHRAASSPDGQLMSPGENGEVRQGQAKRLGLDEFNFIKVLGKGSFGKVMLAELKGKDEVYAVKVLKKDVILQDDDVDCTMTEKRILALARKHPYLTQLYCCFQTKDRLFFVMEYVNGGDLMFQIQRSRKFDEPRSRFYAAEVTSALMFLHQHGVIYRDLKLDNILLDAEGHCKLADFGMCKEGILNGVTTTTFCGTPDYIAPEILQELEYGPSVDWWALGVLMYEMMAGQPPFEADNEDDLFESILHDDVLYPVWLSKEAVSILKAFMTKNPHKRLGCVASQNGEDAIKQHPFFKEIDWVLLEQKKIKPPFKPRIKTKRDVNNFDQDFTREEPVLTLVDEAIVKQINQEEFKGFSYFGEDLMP

HDAC6 = HDAC6 nuclear translocation in SH-SY5Y cells (immunoblot); type: cell-based, human
Description: (§1) Human SH-SY5Y neuroblastoma cells (Sigma-Aldrich), were cultured in 45% F12K, 45% MEM, and 10% FBS. Cells were treated with cholesterol, ASPD, ApoE3/ApoE4+cholesterol, or PKC activators for 24 h. Cholesterol was dissolved in ethanol. ApoE (20 nM) and cholesterol (100 μM) were mixed separately into the cultures. To block the ApoE receptors, cells were treated with RAP for 30 min before adding ApoE. Human primary neurons (ScienCell Research Laboratories) were plated on poly-L-lysine-coated plates and were maintained in neuronal medium (ScienCell Research Laboratories) supplemented with the neuronal growth supplements (ScienCell Research Laboratories). Half of the culture medium was changed every 3 d and fresh activators were added with every medium change to maintain viable neurons.
A PBS solution of 5×10^6 Human SH-SY5Y neuroblastoma cells was centrifuged and the resultant cell pellet was resuspended and washed twice with cold PBS. After the second wash, the cell pellet was resuspended in 500 μl of hypotonic buffer (20 mM Tris-Cl, pH 7.4, 10 mM NaCl, 3 mM MgCl2, and 1 mM PMSF) and incubated on ice for 15 min. Next, 25 μl of 10% NP-40 was added to the cell suspension and the sample was vortexed for 10 s. The homogenate was centrifuged for 10 min at 1000×g at 4° C. to obtain the cytoplasmic fraction (supernatant) and nuclear fraction (pellet). After removing the supernetant, the nuclear pellet was resuspended in 50 μl of complete cell extraction buffer (100 mM Tris-Cl, pH 7.4, 2 mM Na3VO4, 100 mM NaCl, 1% Triton X-100, 1 mM EDTA, 10% glycerol, 1 mM EGTA, 0.1% SDS, 1 mM NaF, 0.5% deoxycholate, 20 mM Na4P2O7, and 1 mM PMSF) and incubated on ice for 30 min with vortexing at 10 min intervals. The nuclear lysate was centrifuged at 14,000×g for 30 min at 4° C. to obtain the nuclear fraction (supernatant). Protein concentration was measured using the Coomassie Plus (Bradford) Protein Assay kit (Pierce).
Protein in samples of the supernetant and nuclear fractions was separated by SDSPAGE in a 4-20% gradient Tris-Glycine gel (Invitrogen). The protein was then transferred to nitrocellulose membrane. The membrane was blocked with BSA at room temperature for 15 min and incubated with primary antibody overnight at 4° C. After incubation, the membrane was washed thrice (3×) with TBS-T (Tris-buffered saline-Tween 20) and further incubated with alkaline-phosphatase-conjugated secondary antibody (Jackson Immunoresearch Laboratories) at 1:10,000 dilution for 45 min. Following incubation, the membrane was washed 3× with TBS-T and developed using the 1-step NBT-BCIP substrate (Pierce). […] The immunoblot proteins were detected using ImageQuant RT-ECL (GE Life Sciences) and densitometric quantification was performed using IMAL software, which was developed at our institution. […]

[6] = in vivo; cited from earlier work
HDAC4 = HDAC4 nuclear translocation in SH-SY5Y cells (immunoblot); type: cell-based, human
Description: as §1
A PBS solution of 5×10^6 Human SH-SY5Y neuroblastoma cells was centrifuged and the resultant cell pellet was resuspended and washed twice with cold PBS. After the second wash, the cell pellet was resuspended in 500 μl of hypotonic buffer (20 mM Tris-Cl, pH 7.4, 10 mM NaCl, 3 mM MgCl2, and 1 mM PMSF) and incubated on ice for 15 min. Next, 25 μl of 10% NP-40 was added to the cell suspension and the sample was vortexed for 10 s. The homogenate was centrifuged for 10 min at 1000×g at 4° C. to obtain the cytoplasmic fraction (supernatant) and nuclear fraction (pellet). […] Protein concentration was measured using the Coomassie Plus (Bradford) Protein Assay kit (Pierce).
Protein in samples of the supernetant and nuclear fractions was separated by SDSPAGE in a 4-20% gradient Tris-Glycine gel (Invitrogen). […] The immunoblot proteins were detected using ImageQuant RT-ECL (GE Life Sciences) and densitometric quantification was performed using IMAL software, which was developed at our institution. […]

PKC [7] = conditions: cited from earlier work; remark: listed apart in the source
BDNF mRNA = BDNF mRNA expression in SH-SY5Y cells (qRT-PCR); type: cell-based, human; conditions: ASPD-treated cells
Description: as §1
qRT-PCR was performed and the results analyzed as described previously (Schmittgen et al., Analyzing real-time PCR data by the comparative C(T) method, Nat. Protoc., 3:1101-1108, 2008; Sen et al., 2012 supra). Total RNA (500 ng) was reverse transcribed using oligo(dT) and Superscript III (Invitrogen) at 50° C. for 1 h. The cDNA products were analyzed using a LightCycler 480 II (Roche) PCR machine and LightCycler 480 SYBR Green 1 master mix following the manufacturer's protocol. Primers for PKCε (forward primer: […], reverse primer: […], PKCα (forward-[…], reverse: […]), PKC (forward: […], reverse: CCGATG […]), GAPDH (forward: […], reverse: […]), and BDNF (forward: […], reverse: […]; Origene).

PKCε mRNA = PKCε mRNA expression in SH-SY5Y cells (qRT-PCR); type: cell-based, human; conditions: ASPD-treated cells
Description: as §1
qRT-PCR was performed and the results analyzed as described previously (Schmittgen et al., Analyzing real-time PCR data by the comparative C(T) method, Nat. Protoc., 3:1101-1108, 2008; Sen et al., 2012 supra). Total RNA (500 ng) was reverse transcribed using oligo(dT) and Superscript III (Invitrogen) at 50° C. for 1 h. The cDNA products were analyzed using a LightCycler 480 II (Roche) PCR machine and LightCycler 480 SYBR Green 1 master mix following the manufacturer's protocol. […]

protein kinase C = conditions: (-)-enantiomer; cited from earlier work
NCI 60 cell line screen = conditions: cited from earlier work
PKC [8] = conditions: [3H] phorbol dibutyrate competition; cited from earlier work
[9] = ApoE4+ASPD induced translocation, 24 h
[10] = A-ring bryologs, read-out: affinity for PKC
[11] = RAP 100 nM, 30 min before ApoE+Chol 24 h

## CCCCCCCC(=O)O[C@H]1/C(=C/C(=O)OC)C[C@H]2C[C@H](CO)OC(=O)C[C@H](O)C[C@@H]3CCC[C@H](C[C@@H]4CCO[C@H](/C=C/C(C)(C)[C@]1(O)O2)O4)O3 [Analog 1]
PKC [1]
  affinity for PKC: highest affinity for PKC
PKC [1]; read-out: PKC Affin
  Ki: 0.25 nM

## C/C=C(/C)C(=O)O[C@H]1C(C)=C[C@]23C(=O)[C@@H](C=C(CO)[C@@H](O)[C@]12O)[C@H]1[C@@H](C[C@H]3C)C1(C)C [Ingenol-3-angelate]
[2]
  antitumor activity: exhibits antitumor activity

## CCC/C=C/C=C/C(=O)O[C@H]1/C(=C/C(=O)OC)C[C@H]2C[C@H]([C@@H](C)O)OC(=O)C[C@H](O)C[C@@H]3C[C@H](OC(C)=O)C(C)(C)[C@](O)(C[C@@H]4C/C(=C/C(=O)OC)C[C@H](/C=C/C(C)(C)[C@]1(O)O2)O4)O3 [Bryostatin-1]
[3]; blood
  t1/2 in the blood stream: 1 h
[3]; in vivo
  crossing of the blood-brain barrier: crosses the blood-brain barrier
[3]; intravenous injection, 100 hrs
  part of initial dose in the blood at 100 hrs: 1%
[3]; single injection
  time detectable in the blood after a single injection: 14 days
PKCε [4]
  PKCε expression and levels in the brain: activate PKCε expression and increase PKCε levels in the brain of mice
PKCε [5]
  synthesis of PKCε: increases the synthesis of PKCε
  time of highest PKCε levels post administration: 1 h

## CCC/C=C/C=C/C(=O)O[C@H]1/C(=C/C(=O)OC)C[C@H]2C[C@H]([C@@H](C)O)OC(=O)C[C@H](O)C[C@@H]3C[C@H](OC(C)=O)C(C)(C)C(O)(C[C@@H]4C/C(=C/C(=O)OC)C[C@H](/C=C/C(C)(C)[C@]1(O)O2)O4)O3 [Bryostatin-1]
HDAC6; [9]
  reduction in nuclear HDAC6: 46±9.2%
[6]
  dose exhibiting no toxicity: 20 μg/week
  dose that may be associated with muscle pain: more than 35 μg/week
HDAC4; [9]
  reduction of nuclear import of HDAC4: 40±8.4%

## CCC1CC1CC1CC1CC1CC1CC1CC1CC1CC1CC1CC1CCC(=O)OC (centres unmarked) [DHA-CP6, cyclopropanated docosahexaenoic acid methyl ester]
PKC [7]
  effective concentration: 10 nM

## CCCCCCCC(=O)OC1C(=CC(=O)OC)CC2CC(CO)OC(=O)CC(O)CCOC(CCCc3ccc(Br)cc3)CC3CCOC(C=CC(C)(C)C1(O)O2)O3 (centres unmarked) [bryolog 5]
PKC [1]; [10]
  Ki: 1.9 nM

## ASPD+Chol: amyloid-β amylospheroids prepared from Aβ1-42, plus cholesterol
HDAC6; 24 h, immunoblot
  HDAC6 in the nucleus, percentage of total protein: 21.7±2.8%
BDNF mRNA
  BDNF mRNA levels: 0.62±0.05 fold
PKCε mRNA
  PKCε mRNA levels: 0.58±0.06 fold

## CCCCCCCCc1ccc2c3c(c[nH]c13)C[C@@H](CO)NC(=O)[C@H](C(C)C)N2C [Octylindolactam V]
Protein kinase C
  EC50: 29 nM

## CC1=CC[C@H](C)C(C)(C)[C@@H]1/C=C/C(C)=C/CC[C@@]1(CO)[C@H](CCCO)/C(=C(/C)C=O)CC[C@]1(C)O [Iripallidal]
NCI 60 cell line screen
  GI50 (concentration required to inhibit growth by 50%): from micromolar to nanomolar range

## CC1=C[C@]23C(=O)[C@@H](C=C(COC(=O)c4ccccc4)[C@@H](O)[C@]2(O)[C@H]1OC(=O)c1ccccc1)[C@H]1[C@@H](C[C@H]3C)C1(C)C [Ingenol 3,20-dibenzoate]
PKC [8]
  Ki: 240 nM

## CCCCCCCC(=O)OC1C(=CC(=O)OC)CC2CC(CO)OC(=O)CC(O)CCOC(C(C)(C)C)CC3CCOC(C=CC(C)(C)C1(O)O2)O3 (centres unmarked) [bryolog 3]
PKC [1]; [10]
  Ki: 6.5 nM

## CCCCCCCC(=O)OC1C(=CC(=O)OC)CC2CC(CO)OC(=O)CC(O)CCOC(c3ccccc3)CC3CCOC(C=CC(C)(C)C1(O)O2)O3 (centres unmarked) [bryolog 4]
PKC [1]; [10]
  Ki: 2.3 nM

B1: RAP: recombinant human receptor-associated protein, ApoE receptor binding protein, from Molecular Innovations (protein, UniProt P30533 35-357, looked up)
Alpha-2-macroglobulin …: YSREKNQPKPSPKRESGEEFRMEKLNQLWEKAQRLHLPPVRLAELHADLKIQERDELAWKKLKLDGLDEDGEKEARLIRNLNVILAKYGLDGKKDARQVTSNSLSGTQEDGLDDPRLEKLWHKAKTSGKFSGEELDKLWREFLHHKEKVHEYNVLLETLSRTEEIHENVISPSDLSDIKGSVLHSRHTELKEKLRSINQGLDRLRRVSHQGYSTEAEFEEPRVIDLWDLAQSANLTDKELEAFREELKHFEAKIEKHNHYQKQLEIAHEKLRHAESVGDGERVSRSREKHALLEGRTKELGYTVKKHLQDLSGRISRARHNEL
HDAC6; [11]
  effect of RAP pretreatment on ApoE-mediated nuclear translocation of HDAC6: abolished the effects of ApoE3+Chol and ApoE4+Chol
HDAC4; [11]
  effect of RAP pretreatment on ApoE-mediated nuclear translocation of HDAC4: abolished the effects of ApoE3+Chol and ApoE4+Chol
